Measured values from PubChem BioAssay (NCI).
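Five compound concentrations were applied to cells in 96-well plates for 48 hours; endpoints were derived by simple linear interpolation of the resulting dose-response curve. Abbreviation: GI50, concentration required for 50% inhibition of growth. TGI is the concentration that stops growth completely.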

Legend:
Assay in all cases: growth of human tumour cells (NCI), 48 h
ACHN renal = test system: ACHN renal
CCRF-CEM leukemia = test system: CCRF-CEM leukemia
HCT-15 colon = test system: HCT-15 colon
MDA-MB-231 breast = test system: MDA-MB-231 breast
NCI-H226 lung = test system: NCI-H226 lung
OVCAR-5 ovarian = test system: OVCAR-5 ovarian
SK-MEL-2 melanoma = test system: SK-MEL-2 melanoma
SN12C renal = test system: SN12C renal
T-47D breast = test system: T-47D breast
BT-549 breast = test system: BT-549 breast

Row | Structure (SMILES) | GI50 (ACHN renal) [µM] | TGI (ACHN renal) [µM] | GI50 (CCRF-CEM leukemia) [µM] | TGI (CCRF-CEM leukemia) [µM] | GI50 (HCT-15 colon) [µM] | TGI (HCT-15 colon) [µM] | GI50 (MDA-MB-231 breast) [µM] | TGI (MDA-MB-231 breast) [µM] | GI50 (NCI-H226 lung) [µM] | TGI (NCI-H226 lung) [µM] | GI50 (OVCAR-5 ovarian) [µM] | TGI (OVCAR-5 ovarian) [µM] | GI50 (SK-MEL-2 melanoma) [µM] | TGI (SK-MEL-2 melanoma) [µM] | GI50 (SN12C renal) [µM] | TGI (SN12C renal) [µM] | GI50 (T-47D breast) [µM] | TGI (T-47D breast) [µM] | TGI (BT-549 breast) [µM] | GI50 (BT-549 breast) [µM]
1 | CCOc1ccc(-c2nc3ccc(-c4nc5ccc(N6CCN(C)CC6)cc5[nH]4)cc3[nH]2)cc1OCC | 3.48 | 13.9 | 2.04 | 22.8 | 15 | > 100 | 2.25 | 7.09 | 1.17 | 4.8 | 4.37 | 14.2 | 1.49 | 3.27 | 1.94 | 10.9 | 0.946 | 5.57 |  | 
2 | CCCCP1(=O)C=CC(Cl)=C(C)C1 (centres undefined) |  | > 100 |  | > 100 |  | > 100 |  |  |  |  |  | > 100 |  | > 100 |  | > 100 |  |  |  | 
3 | O=C(c1ccccc1)N1CCc2c([nH]c3ccccc23)C1 |  | > 100 |  | > 100 |  | > 100 |  |  |  | > 100 |  | > 100 |  | 71.2 |  | > 100 |  |  |  | 
4 | O=C(NC(=Nc1ccccc1)SCCSC(=Nc1ccccc1)NC(=O)c1ccccc1)c1ccccc1 |  | > 100 |  | > 100 |  | > 100 |  |  |  | > 100 |  | > 100 |  | > 100 |  | > 100 |  |  |  | 
5 | O=C(N=Nc1c(O)[nH]c2c(Cl)cc(Cl)cc12)C(=O)Nc1cccc(C(F)(F)F)c1 |  | > 100 |  | > 100 |  | > 100 |  | > 100 |  | > 100 |  | > 100 |  | > 100 |  | > 100 |  |  | > 100 | 
6 | Cc1c(Cl)ccc2[s+]snc12 |  | > 100 |  | 82.6 |  | > 100 |  |  |  | > 100 |  | > 100 |  | 77.3 |  | 57.3 |  |  |  | 
7 | COc1cc(Br)c(C2OCCCO2)cc1OCc1ccccc1 |  | > 100 |  | > 100 |  | > 100 |  |  |  | > 100 |  | > 100 |  | > 100 |  | > 100 |  |  |  | 
8 | CC(C)CC(=O)O[C@H]1C(=O)O[C@@H]2C[C@H]3[C@H](C)C(=O)C(O[C@@H]4O[C@H](CO)[C@@H](O)[C@H](O)[C@H]4O)=C[C@]3(C)[C@H]3[C@@H](O)[C@H](O)[C@]4(C(=O)O)OC[C@]32[C@@H]14 | > 100 | > 100 | 24.7 | 83.6 | > 100 | > 100 | > 100 | > 100 | 29.2 | 92 |  | > 100 |  |  | > 100 | > 100 |  | > 100 | > 100 | 
9 | CC[C@@]12CC(C(=O)OC)=C3Nc4ccccc4[C@@]34CCN(C[C@H]3O[C@H]31)[C@@H]24 | > 100 | > 100 | 33.9 | > 100 | 33.5 | > 100 | 47.6 | > 100 |  |  | > 100 | > 100 | 25.1 | > 100 | > 100 | > 100 | 27.5 | > 100 | > 100 | 43.5
10 | Cc1nn(-c2ccccc2)c2c1[C@@H](C)[C@H]1CC3(CC4(C)C[C@@H]3C1(C)c1c(C)nn(-c3ccccc3)c1N4C)N2C (some centres undefined) |  |  |  |  |  |  | > 100 | > 100 | > 100 | > 100 | > 100 | > 100 | > 100 | > 100 | > 100 | > 100 | 2.64 | > 100 | > 100 | > 100
11 | O=C1N(c2ccccc2)C2(O)C(=O)c3ccccc3C2(O)N1c1ccccc1 (centres undefined) |  | > 100 |  | > 100 |  | > 100 |  |  |  | > 100 |  | > 100 |  | > 100 |  | > 100 |  |  |  | 
12 | Fc1cnccc1-c1nc2ccc3[nH]ncc3c2c2c1CCCC2 | 0.466 | > 100 | 1.84 | > 100 | 0.844 | > 100 | 2.3 | > 100 | 2.71 | > 100 | 3.16 | > 100 |  |  | 2.14 | > 100 | 1.51 | 9.01 | 7.74 | 1.28
13 | O=C(CC1(O)C(=O)Nc2ccc(Br)cc21)c1cccc([N+](=O)[O-])c1 (centres undefined) |  | > 100 |  | 99.6 |  | > 100 |  |  |  | 82.5 |  | > 100 |  | > 100 |  | > 100 |  |  |  | 
14 | CCN(CC)CCCC(C)Nc1ccnc2cc(OC)ccc12 (centres undefined) | 39.4 | > 100 | 18.1 | 42.3 | 37.5 | > 100 | 22.5 | 54.3 | 22.2 | 46.6 | 21.2 | 50.2 | 24.8 | 52.9 | 29.7 | 75.1 |  |  | 37 | 18.7
15 | C/C(=N\NC(N)=S)c1ccc(Oc2ccccc2)cc1 |  | 42.7 |  | 37.2 |  | 22.5 |  |  |  |  |  |  |  |  |  | 38.4 |  |  |  | 
16 | N#CCC1CCN(c2nc(Nc3ccc(N4CCC(O)CC4)cc3)c3c(=O)[nH]ncc3n2)CC1 | 0.473 | > 100 | 1.01 | > 100 | 0.428 | > 100 | 1.17 | > 100 | 0.639 | > 100 | 1.22 | > 100 |  |  | 0.391 | > 100 | 2.05 | > 100 | > 100 | 1.28
17 | O=C(CNC(=O)c1cccc2ccccc12)Nc1ccccc1Oc1ccc(O)cc1 | 1.86 | > 25 | 0.94 | > 25 | 0.909 | > 25 | 3.18 | > 25 | 4.74 | > 25 | 6.3 | > 25 |  |  | 2.19 | > 25 | 1.54 | > 25 | > 25 | 1.63
18 | CC[C@H]1CNC(=O)CC1CC(=O)OC (some centres undefined) |  | > 100 |  |  |  | > 100 |  |  |  | > 100 |  | > 100 |  | > 100 |  | > 100 |  |  |  | 
19 | Cc1cc(Br)ccc1N=NC1C(=O)ON=C1c1ccccc1 (centres undefined) |  | > 100 |  |  |  |  |  |  |  | > 100 |  | > 100 |  | > 100 |  | > 100 |  |  |  | 
